Test [1] has as its target T1, human TRPV1 receptor (hTRPV1) (Homo sapiens (Human), UniProt Q8NER1). The test can be described thus: Capsaicin activation assay (FLIPR intracellular Ca2+). It is filed as cell-based. The note with it: inhibition of capsaicin-induced intracellular Ca2+ increase; compounds added 3 minutes prior to capsaicin; read-out: hTRPV1 cap. IC50. On the procedure:
Dulbecco's modified Eagle medium (D-MEM) (with 4.5 mg/mL glucose) and fetal bovine serum were obtained from Hyclone Laboratories, Inc. (Logan, Utah). Dulbecco's phosphate-buffered saline (D-PBS) (with 1 mg/mL glucose and 3.6 mg/l Na pyruvate, without phenol red), L-glutamine, hygromycin B, and Lipofectamine® were obtained from Life Technologies (Grand Island, N.Y.). G418 sulfate was obtained from Calbiochem-Novabiochem Corp. (San Diego, Calif.). Capsaicin (8-methyl-N-vanillyl-6-nonenamide) was obtained from Sigma-Aldrich, Co. (St. Louis, Mo.). Fluo-4 AM (N-[4-[6-[(acetyloxy)methoxy]-2,7-difluoro-3-oxo-3H-xanthen-9-yl]-2-[2-[2-[bis[2-[(acetyloxy)methoxy]-2-oxyethyl]amino]-5-methylphenoxy]ethoxy]phenyl]-N-[2-[(acetyloxy)methoxy]-2-oxyethyl]-glycine, (acetyloxy)methyl ester) was purchased from Molecular Probes (Eugene, Oreg.).
(§1) The cDNAs for the human TRPV1 receptor (hTRPV1) were isolated by reverse transcriptase-polymerase chain reaction (RT-PCR) from human small intestine poly A+ RNA supplied by Clontech (Palo Alto, Calif.) using primers designed surrounding the initiation and termination codons identical to the published sequences (Hayes et al. Pain 2000, 88, 205-215). The resulting cDNA PCR products were subcloned into pCIneo mammalian expression vector (Promega) and fully sequenced using fluorescent dye-terminator reagents (Prism, Perkin-Elmer Applied Biosystems Division) and a Perkin-Elmer Applied Biosystems Model 373 DNA sequencer or Model 310 genetic analyzer. Expression plasmids encoding the hTRPV1 cDNA were transfected individually into 1321N1 human astrocytoma cells using Lipofectamine®. Forty-eight hours after transfection, the neomycin-resistant cells were selected with growth medium containing 800 μg/mL Geneticin (Gibco BRL). Surviving individual colonies were isolated and screened for TRPV1 receptor activity. Cells expressing recombinant homomeric TRPV1 receptors were maintained at 37° C. in D-MEM containing 4 mM L-glutamine, 300 μg/mL G418 (Cal-biochem) and 10% fetal bovine serum under a humidified 5% CO2 atmosphere.
The functional activity of compounds at the TRPV1 receptor was determined by measurement of intracellular Ca^2+ levels ([Ca^2]i) using the Fluorescence Imaging Plate Reader (FLIPR)^TETRA®. All compounds were tested over a 12-point one-third-log concentration range. Compound stocks, 10 mM, were prepared in DMSO, and diluted serially across a 384-well plate using a Bravo BenchCel workstation (Agilent Technologies, Santa Clara, Calif.). A stock concentration of capsaicin (10 mM) was made in DMSO, and diluted in D-PBS to a final concentration of 200 nM (4×). On the day prior to the experiment, recombinant HEK293 cells that stably express either human or rat TRPV1 (hTRPV1-3) were removed from tissue culture flasks and plated in growth medium into black-walled clear-bottom 384-well Biocoat™ poly-D-lysine assay plates (BD Biosciences, Bedford, Mass.) using a Multidrop® dispenser (ThermoScientific, Waltham, Mass.). On the day of the experiment, growth medium was removed, and the no-wash FLIPR® Calcium-4 dye (λEX=470-495 nm, λEM=515-575 nm; Molecular Devices, Sunnyvale, Calif.) was added to each well using the Multidrop® dispenser. Cells were incubated for 90-120 minutes in the dark at room temperature. Test compounds were added to the cells 3 minutes prior to the addition of 200 nM capsaicin (4×), and the final assay volume was 80 μL. Fluorescence readings were made at 1 to 5 second intervals over the course of the experimental run. The peak increase in relative fluorescence units (minus baseline) was calculated, and expressed as a percentage of the 50 nM capsaicin (control) response. Curve-fits of the data were solved using a four-parameter logistic Hill equation in GraphPad Prism® (GraphPad Software, Inc., San Diego, Calif.), and IC50 values (concentration of the test compounds that inhibits 50% of the intracellular Ca^2+ concentration increase induced by capasin) were calculated.

For test [2], the target named is T1, human TRPV1 receptor (hTRPV1). The test can be described thus: Acid activation assay (pH 5.0, FLIPR intracellular Ca2+). It is filed as cell-based. The note with it: 37.5 μM compound, percentage of the maximal pH 5.0-induced response remaining; for remaining activity at 37.5 µM: read-out: hTRPV1 H+ (max % remain). On the procedure:
Dulbecco's modified Eagle's medium (DMEM) with 4.5 mg/mL D-glucose, fetal bovine serum, L-glutamine, and 2-morpholinoethanesulfonic acid (MES) were purchased from Sigma-Aldrich Co. (St. Louis, Mo.). Dulbecco's phosphate-buffered saline (DPBS) with Ca^2+, Mg^2+, and 1 mg/mL D-glucose (pH 7.4), Geneticin®, 0.25% trypsin-1 mM EDTA, and penicillin-streptomycin were purchased from Invitrogen Corp. (Carlsbad, Calif.). The FLIPR® Calcium 4 assay kit was purchased from Molecular Devices (Sunnyvale, Calif.).
as §1, with “DMEM” for “D-MEM”
The functional activity of compounds at the TRPV1 receptor was determined by measurement of intracellular Ca^2+ levels ([Ca^2+]i) using the Fluorescence Imaging Plate Reader (FLIPR)^TETRA®. All compounds were tested over a 12-point one-half-log concentration range. Compound stocks, 10 mM, were prepared in DMSO, and diluted serially across a 384-well plate using a Bravo BenchCel workstation (Agilent Technologies, Santa Clara, Calif.).
On the day of the experiment growth medium was removed, and the no-wash FLIPR®Calcium-4 dye (λEX=470-495 nm, λEM=515-575 nm) was added to each well using the Multidrop® dispenser. Cells were incubated for 90-120 minutes in the dark at 25° C. Test compounds were dissolved in DMSO, and plates were prepared using an Agilent Bravo workstation (Agilent Technologies Inc., Santa Clara, Calif.). Compounds were added to the cells 3 minutes prior to the addition of a pH 5.0 solution. Reagents were delivered at a rate of 40 μL/sec, and the final assay volume was 80 μL. Acidic pH solutions were prepared by titration of DPBS/MES with 1 N HCl. The intensity of the fluorescence was captured and digitally transferred to an interfaced PC.

T1 sequence (Q8NER1 whole entry): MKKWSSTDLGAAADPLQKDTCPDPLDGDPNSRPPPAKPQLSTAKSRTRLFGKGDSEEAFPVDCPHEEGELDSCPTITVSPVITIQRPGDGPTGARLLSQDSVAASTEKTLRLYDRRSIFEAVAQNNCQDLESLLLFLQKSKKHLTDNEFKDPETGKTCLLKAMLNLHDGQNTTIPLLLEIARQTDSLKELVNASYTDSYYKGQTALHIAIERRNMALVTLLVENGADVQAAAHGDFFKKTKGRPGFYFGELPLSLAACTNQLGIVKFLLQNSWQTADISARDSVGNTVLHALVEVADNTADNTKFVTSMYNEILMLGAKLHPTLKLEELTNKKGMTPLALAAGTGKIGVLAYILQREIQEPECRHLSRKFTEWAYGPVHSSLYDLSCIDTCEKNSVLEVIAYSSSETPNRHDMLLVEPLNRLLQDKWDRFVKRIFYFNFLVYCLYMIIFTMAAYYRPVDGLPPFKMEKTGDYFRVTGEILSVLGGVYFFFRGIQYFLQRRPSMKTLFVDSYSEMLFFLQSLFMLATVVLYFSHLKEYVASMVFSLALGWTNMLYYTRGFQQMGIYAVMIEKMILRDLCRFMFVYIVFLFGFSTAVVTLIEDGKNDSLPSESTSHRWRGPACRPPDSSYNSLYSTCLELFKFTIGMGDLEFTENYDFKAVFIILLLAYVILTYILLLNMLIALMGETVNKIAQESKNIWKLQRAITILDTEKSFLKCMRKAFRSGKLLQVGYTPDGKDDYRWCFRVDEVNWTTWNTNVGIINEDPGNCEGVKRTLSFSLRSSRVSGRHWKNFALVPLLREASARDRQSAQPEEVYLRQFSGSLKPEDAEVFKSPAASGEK

On to `CC(C)(C)c1ccc2c(c1)CC[C@H]2NC(=O)NCc1ccc(NS(C)(=O)=O)c(F)c1` [Example 1, N-{4-[({[(1R)-5-tert-butyl-2,3-dihydro-1H-inden-1-yl]carbamoyl}amino)methyl]-2-fluorophenyl}methanesulfonamide], for which, in test [1], the half-maximal inhibitory concentration (IC50) (usually the concentration that gives 50% inhibition) was 0.104 µM. Also, the remaining activity at 37.5 µM in test [2] came out at 22%.

Take `CC1(C)C[C@@H](NC(=O)NCc2ccc(NS(C)(=O)=O)c(F)c2)c2ccc(F)cc2O1` [Example 7, N-{2-fluoro-4-[({[(4R)-7-fluoro-2,2-dimethyl-3,4-dihydro-2H-chromen-4-yl]carbamoyl}amino)methyl]phenyl}methanesulfonamide]: the half-maximal inhibitory concentration (IC50) in test [1] is 0.747 µM. Moreover, in test [2], the remaining activity at 37.5 µM is 18%.

For the compound `C[C@]1(CF)C[C@@H](NC(=O)NCc2ccc(NS(C)(=O)=O)c(F)c2)c2ccc(C(F)(F)F)cc2O1` [Example 38, N-{2-fluoro-4-[({[(2R,4R)-2-(fluoromethyl)-2-methyl-7-(trifluoromethyl)-3,4-dihydro-2H-chromen-4-yl]carbamoyl}amino)methyl]phenyl}methanesulfonamide], in test [1], the 50% inhibitory concentration (IC50) was determined as 0.345 µM. In addition, the remaining activity at 37.5 µM in test [2] came out at 63%.

Consider `CC1(C)C[C@@H](NC(=O)NCc2ccc(NS(C)(=O)=O)c(F)c2)c2cc(F)ccc2O1` [Example 22, N-{2-fluoro-4-[({[(4R)-6-fluoro-2,2-dimethyl-3,4-dihydro-2H-chromen-4-yl]carbamoyl}amino)methyl]phenyl}methanesulfonamide], for which the IC50 in test [1] amounted to 7.59 µM. The remaining activity at 37.5 µM in test [2] was determined as 71%.

Turning to `CCC1(CC)C[C@@H](NC(=O)NCc2ccc(NS(C)(=O)=O)c(F)c2)c2cc(F)ccc2O1` [Example 18, N-{4-[({[(4R)-2,2-diethyl-6-fluoro-3,4-dihydro-2H-chromen-4-yl]carbamoyl}amino)methyl]-2-fluorophenyl}methanesulfonamide], the 50% inhibitory concentration (IC50) in test [1] was 2.15 µM. For the same compound, the remaining activity at 37.5 µM in test [2] was determined as 56%.

Turning to `CS(=O)(=O)Nc1ccc(CNC(=O)N[C@@H]2CCc3cc(Cl)ccc32)cc1F` [Example 3, N-{4-[({[(1R)-5-chloro-2,3-dihydro-1H-inden-1-yl]carbamoyl}amino)methyl]-2-fluorophenyl}methanesulfonamide], the IC50 in test [1] was 1.81 µM. Also, in test [2], the remaining activity at 37.5 µM is 86%.

Regarding `CS(=O)(=O)Nc1ccc(CNC(=O)N[C@@H]2CC(CF)(CF)Oc3cc(Cl)ccc32)cc1F` [Example 6, N-{4-[({[(4R)-7-chloro-2,2-bis(fluoromethyl)-3,4-dihydro-2H-chromen-4-yl]carbamoyl}amino)methyl]-2-fluorophenyl}methanesulfonamide], in test [1], the IC50 was determined as 2.9 µM. The remaining activity at 37.5 µM in test [2] is 73%.

For the compound `CS(=O)(=O)Nc1ccc(CNC(=O)N[C@@H]2CCc3cc(C(F)(F)F)ccc32)cc1F` [Example 5, N-{2-fluoro-4-[({[(1R)-5-(trifluoromethyl)-2,3-dihydro-1H-inden-1-yl]carbamoyl}amino)methyl]phenyl}methanesulfonamide], the IC50 in test [1] worked out at 0.325 µM. The remaining activity at 37.5 µM in test [2] stood at 88%.

`C[C@]1(C(F)F)C[C@@H](NC(=O)NCc2ccc(NS(C)(=O)=O)c(F)c2)c2ccccc2O1` [Example 41, N-{4-[({[(2R,4R)-2-(difluoromethyl)-2-methyl-3,4-dihydro-2H-chromen-4-yl]carbamoyl}amino)methyl]-2-fluorophenyl}methanesulfonamide]: the half-maximal inhibitory concentration (IC50) in test [1] worked out at 5.28 µM. In addition, the remaining activity at 37.5 µM in test [2] was found to be 71%.

Consider `CCC1(CC)C[C@@H](NC(=O)NCc2ccc(NS(C)(=O)=O)c(F)c2)c2ccc(Cl)cc2O1` [Example 14, N-{4-[({[(4R)-7-chloro-2,2-diethyl-3,4-dihydro-2H-chromen-4-yl]carbamoyl}amino)methyl]-2-fluorophenyl}methanesulfonamide], for which the IC50 in test [1] amounted to 0.209 µM. Besides, in test [2], the remaining activity at 37.5 µM is 27%.

In the case of `CS(=O)(=O)Nc1ccc(CNC(=O)N[C@@H]2CCOc3c2cccc3C(F)(F)F)cc1F` [Example 31, N-{2-fluoro-4-[({[(4R)-8-(trifluoromethyl)-3,4-dihydro-2H-chromen-4-yl]carbamoyl}amino)methyl]phenyl}methanesulfonamide], in test [1], the IC50 was 3.8 µM. Besides, the remaining activity at 37.5 µM in test [2] came out at 77%.

Take `CS(=O)(=O)Nc1ccc(CNC(=O)N[C@@H]2CCOc3cc(OC(F)(F)F)ccc32)cc1F` [Example 26, N-{2-fluoro-4-[({[(4R)-7-(trifluoromethoxy)-3,4-dihydro-2H-chromen-4-yl]carbamoyl}amino)methyl]phenyl}methanesulfonamide]: the 50% inhibitory concentration (IC50) in test [1] was more than 37.5 µM. In addition, in test [2], the remaining activity at 37.5 µM was 84%.

Regarding `CS(=O)(=O)Nc1ccc(CNC(=O)N[C@@H]2CCOc3ccccc32)cc1F` [Example 12, N-[4-({[(4R)-3,4-dihydro-2H-chromen-4-ylcarbamoyl]amino}methyl)-2-fluorophenyl]methanesulfonamide], the IC50 in test [1] is more than 37.5 µM. Also, the remaining activity at 37.5 µM in test [2] came out at 87%.

In the case of `CS(=O)(=O)Nc1ccc(CNC(=O)N[C@H]2CCOc3cc(OC(F)(F)F)ccc32)cc1F` [Example 24, N-{2-fluoro-4-[({[(45)-7-(trifluoromethoxy)-3,4-dihydro-2H-chromen-4-yl]carbamoyl}amino)methyl]phenyl}methanesulfonamide], the IC50 in test [1] was more than 37.5 µM. Also, the “hTRPV1 H+ (max % remain)” value in test [2] came to 77%.

The values above are taken from patent publication US8796328B2, “TRPV1 antagonists” (AbbVie Inc., priority 2012, dated 2014).
